The structures appear in SMILES notation. Marks after values point to notes of the source that are not given here.

The subject of one data set is adult male Swiss mice. The data set is described as follows: Antispermatogenic screen: single gavage dose to male mice, testes weight and Spermatogenic Index at 72 h. The data set is classed as in vivo. To be noted: day 3 (72 h). The procedure:
The compounds of the invention were tested in mice for their effects on spermatogenesis three days after a single oral dose by the procedure described in Cook et al (1995) below. Compounds active in this test have been shown also to be anti-fertility compounds.
Compounds were screened for antispermatogenic activity by dosing male mice on day 1 with a gavage dose of control vehicle, positive control (compound 1) or compound of the invention. At 72 h after dosing, animals were killed and the testes were excised, trimmed of fat, and weighed. One testis was examined histologically and rated for spermatogenic potential using the Spermatogenic Index (J. M. Whitsett, P. F. Noden, J. Cherry and A. D. Lawton, J. Reprod. Fertil., 72, 277 (1984), which is a semiquantitative estimate of the sperm producing ability of the testes The index is based on histological appearance of the spermatogenic cells in the seminiferous tubules. A scale of 1 to 6 is used with 5 to 6 being the normal status. A second assessment was based on the weight of the testes.
Tables 1 and 2 show pertinent biological results in terms of the change in testes weight (TW) and spermatogenic index (SI) relative to a control containing only the administration vehicle, but no indenopyridine. In Tables 1 and 2, R^3 and R^4 refer to structures Ib, where R^3 is in the para position; R^1 is ethyl; R^2 is methyl; and R^5 is hydrogen.

Another data set relates to testes. As to the kind of experiment: Antispermatogenic activity after a single oral dose to rats. The data set is classed as in vivo. To be noted: single oral dose of 30 mg/kg. The source says:
Spermatids became pycnotic, occasionally forming multinucleated associations. Sertoli cells appear to be cytologically normal. It appears that compound 1 targets spermatids or the Sertoli cell associated with these spermatids because histologic changes are observed in these spermatids first.

Another data set relates to spermatogenesis. To be noted: oral administration to animals; cited from earlier work.
A further data set relates to mice. As to the kind of experiment: Lethargy and sedation in mice. The data set is classed as in vivo. The source says:
Lethargy and sedation are obviously undesirable side effects in contraceptive agents. In contrast to the lethargy and sedation observed with compound 1, the compounds of the present invention produce minimal lethargy.

Where [1] appears, read: racemic compounds, 3 mg/kg single gavage dose, vehicle 90% water, 7% Tween20, 3% ethanol.
The mark [2] stands for this setting: racemic compounds, 10 mg/kg single gavage dose, vehicle 90% water, 7% Tween20, 3% ethanol.
[3] abbreviates: racemic compounds, 30 mg/kg single gavage dose, vehicle 90% water, 7% Tween20, 3% ethanol.
The mark [4] stands for this setting: racemic compounds, 1 mg/kg single gavage dose, vehicle 90% water, 7% Tween20, 3% ethanol.
[5] abbreviates: Table 2, 30 mg/kg single gavage dose, vehicle 1% Tween20 in water.

The compound `CCN1CC[C@@H]2[C@@H](c3ccc(C(=O)O)cc3)c3cc(C)c(Br)cc3[C@@H]2C1.Cl` (racemic) [Compound 19, (4aRS,5SR,9bRS)-2-Ethyl-8-Bromo-7-Methyl-2,3,4,4a,5,9b-Hexahydro-5-(4-carboxylphenyl)-1H-Indeno[1,2-c]pyridine Hydrochloride] came in with a melting point of 169.6 to 170.3 °C. In the data set with adult male Swiss mice (setting [1]), the “SI change (%) (Spermatogenic Index, % change from vehicle control)” value is given as −69%* and the “TW change (%) (testes weight, % change from vehicle control)” value (shortened to “TW change (%)”) is −8%. Further, in the data set with adult male Swiss mice (setting [2]), the “SI change (%) (Spermatogenic Index, % change from vehicle control)” value is −71%* and the “TW change (%)” value was −28%*. Besides, in the data set on adult male Swiss mice (setting [3]), the “SI change (%) (Spermatogenic Index, % change from vehicle control)” value is −72%* and the “TW change (%)” value is reported as −39%*.
As for `CCN1CC[C@@H]2[C@@H](c3ccc(C(=O)OC)cc3)c3cc(C)c(I)cc3[C@@H]2C1.Cl` (racemic) [Compound 18, (4aRS,5SR,9bRS)-2-Ethyl-2,3,4,4a,5,9b-hexahydro-8-iodo-7-methyl-5-(4-carbomethoxyphenyl)-1H-indeno[1,2-c]pyridine Hydrochloride], the melting point was > 190 °C (dec.). Further, in the data set on adult male Swiss mice (setting [4]), the “SI change (%) (Spermatogenic Index, % change from vehicle control)” value was −57%* and the “TW change (%)” value is −16%. For the same compound, in the data set on adult male Swiss mice (setting [1]), the “SI change (%) (Spermatogenic Index, % change from vehicle control)” value is given as −69%* and the “TW change (%)” value was −27%*. For the same compound, in the data set with adult male Swiss mice (setting [2]), the “SI change (%) (Spermatogenic Index, % change from vehicle control)” value is −74%* and the “TW change (%)” value is on record as −36%*.
Turning to `CCN1CC[C@@H]2[C@@H](c3ccc(C(=O)O)cc3)c3cc(C)ccc3[C@@H]2C1.Cl` (racemic) [Compound 2, (4aRS,5SR,9bRS)-2-Ethyl-2,3,4,4a,5,9b-hexahydro-7-methyl-5-(4-carboxyphenyl)-1H-indeno[1,2-c]pyridine Hydrochloride], the melting point is 280 °C (dec.). Further, in the data set on adult male Swiss mice (setting [2]), the “SI change (%) (Spermatogenic Index, % change from vehicle control)” value is reported as −24%* and the “TW change (%)” value is on record as 2%. For the same compound, in the data set with adult male Swiss mice (setting [3]), the “SI change (%) (Spermatogenic Index, % change from vehicle control)” value is listed as −52%* and the “TW change (%)” value is given as −7%.
As for `CCN1CC[C@@H]2[C@@H](c3ccc(C)cc3)c3cc(C)ccc3[C@@H]2C1` (racemic) [Compound 1, (4aRS,5SR,9bRS)-2-ethyl-2,3,4,4a,5,9b-hexahydro-7-methyl-5-(4-methylphenyl)-1H-indeno[1,2-c]pyridine], the Testis histology result in the data set on testes was “Degenerative changes in the seminiferous tubules”. Further, the “Effect on weights of the testes” value in the data set with testes (within 24 h) is reported as “drastically reducing the weights of the testes”. For the same compound, in the data set with spermatogenesis, the Inhibition of spermatogenesis entry is “reversible inhibition of spermatogenesis”. For the same compound, in the data set on mice (30 mg/kg given subcutaneously), the Lethargy result is recorded as “extreme lethargy”. In addition, the Lethargy and sedation result with mice (oral dose of 30 mg/kg) is “some lethargy and sedation”. In the data set on adult male Swiss mice (setting [5]), the “SI change (%) (Spermatogenic Index, % change from vehicle control)” value is given as −61%* and the “TW change (%)” value is on record as −24%*. In addition, in the data set on adult male Swiss mice (setting [3]), the “SI change (%) (Spermatogenic Index, % change from vehicle control)” value is reported as −55%* and the “TW change (%)” value is reported as 19%*.

(Values after patent US8193213B2, “Spermicidal and/or antifungal composition and methods of using the same” (priority 2003, dated 2012).)
